Results on one substance are retold here after patent publication US20110236395A1, “TREATMENT OF FIBROTIC EYE DISORDERS USING AN MMP2 INHIBITOR” (UNIVERSITY OF EAST ANGLIA, priority 2008, published 2011).

This data set deals with FHL 124 cells. Put plainly: Patch contraction assay (TGF-β-induced matrix contraction). Type of data set: cell-based, human. As for the experimental part: FIG. 2. […] FHL 124 cells were seeded to form patches, maintained in serum-free medium before exposure to experimental conditions. All cultures were maintained for 72 hours in 5% EMEM (Eagle's minimal essential medium) alone or 5% FCS (fetal calf serum) EMEM supplemented with 10 ng/mL TGF-β1 or -β2±the MMP inhibitor GM6001 (25 μM). (A) Visual representations of patch assay cultures in different experimental conditions. (B) Quantified data showing differences in patch area. (C) Data showing differences in cell populations between patch areas (Coomassie blue dye was extracted and quantified from the same experiment as presented in (B)). In FIGS. 2(B) and (C) each left hand bar of the bar pairs reports the result in the absence of GM6001 (indicated as “−GM6001” in the key) and the right hand bar reports the result in the presence of GM6001 (indicated as “+GM6001” in the key). Data represent mean±SEM. * Indicates a significant difference from unstimulated control cells. # Indicates a significant difference between siMMP2 treated cells and SCR siRNA counterparts (p≦0.05, ANOVA with the Tukey test).
FIG. 6. MMP2 is important for TGF-β-induced matrix contraction. FHL 124 cells were seeded to form patches, then transfected with siRNA targeted to MMP2 or SCR negative control and maintained in Optimem™ (Invitrogen Corporation; Optimem is a modified EMEM, buffered with HEPES and sodium bicarbonate and supplemented with hypoxanthine, thymidine, sodium pyruvate, L-glutamine or Glutamax, trace elements and growth factor; the protein level is minimal (15 μg/mL) with insulin and transferrin being the only protein supplements; phenol red is included as a pH indicator). Patches were measured after 72 hours of culture with 10 ng/mL TGF-β1 or […]. (A) Visual representations of patch assay cultures in different experimental conditions. (B) Quantified data showing differences in patch area. (C) Data showing differences in cell populations between patch areas (Coomassie blue dye was extracted and quantified from the same experiment as presented in (B)). In FIGS. 6(B) and (C) each left hand bar of the bar pairs reports the result with Scramble siRNA (indicated as “Scramble SiRNA” in the key) and the right hand bar reports the result in the presence of MMP2 specific siRNA (indicated as “MMP2 SiRNA” in the key). The data in (B) and (C) represent the mean±SEM (n≦4). *Indicates a significant difference from unstimulated control cells. # Indicates a significant difference between siMMP2 treated cells and SCR siRNA counterparts (p≦0.05, ANOVA with the Tukey test).
FIG. 7. MMP2 inhibition using neutralising antibody ([…]) prevents TGF-β2 (10 ng/ml)-induced matrix contraction assessed by patch assay. In FIG. 7(B) each left hand bar of the bar pairs reports the result in the absence of the antibody (indicated as “−4 μg/ml Anti MMP2” in the key) and the right hand bar reports the result in the presence of the antibody (indicated as “+4 μg/ml Anti MMP2” in the key). Data expressed as Mean±SEM (n=3).
FHL 124 cells were seeded at four sites on a tissue culture dish at 5000 cells in 25 μl and maintained in EMEM supplemented with 5% FCS until confluent regions spanning about 5 mm developed (Wormstone et al, Exp. Eye Res. (2004), 78, pages 705-14). The medium was then replaced with non-supplemented EMEM, and the cells were cultured for a further 24 hours, followed by the removal of medium from four patch culture dishes fixed for 30 minutes with 4% formaldehyde at room temperature, followed by washing in PBS. The patches were used as a t=0 reference control.
All remaining cell cultures were exposed to experimental conditions for up to 3 days. Experiments were terminated after the appearance of cell-free regions (holes) within the central region of the patch, by fixation for 30 minutes with 4% formaldehyde at room temperature. […]

The mark [1] stands for this setting: siMMP2 transfected, 10 ng/ml TGF-β1 or TGF-β2, 72 hours.

For the substance “siMMP2: Custom made MMP2 siRNA: sense 5′-GGACACACUAAAGAAGAUGTT-3′, antisense 5′-CAUCUUCUUUAGUGUGUCCTT-3′, purchased from Ambion (chemistry not given here)”, under setting [1], the TGF-β-induced contraction entry was “did not show any evidence of contraction” and the “patch area vs non-TGF-β-treated controls” value is on record as “did not differ significantly from non-TGF-β-treated controls”. For the setting “siRNA transfected, non-stimulated conditions (no TGF-β)”, the “patch area vs SCR control” value is “did not show a statistical difference in patch area from the SCR control”.
